Assay results published in patent US8435980B2 (AbbVie Inc., priority 2009, dated 2013).

molecular target: T1, Cdc7 (BEV coexpressed huCDC7/DBF4) (Homo sapiens, UniProt O00311); test: Cdc7 enzyme inhibition assay ([33P]ATP, biotinylated peptide substrate, FlashPlate); format: biochemical; details: Table 3; enzyme inhibition data (Ki)
T1 construct: made in house; host or cells: BEV (baculovirus expression vector) co-expression; insect cells are implied but no cell line is named
Procedure: Cdc7 (BEV coexpressed huCDC7/DBF4) is prepared internally. Cdc7 assays are conducted as follows with final concentrations as listed. […] Reactions are quenched after 1 hr by the addition of 90 μL stop buffer (50 mM EDTA, 2M NaCl). […] (Ki) for exemplary compounds.

T1 sequence (O00311 whole entry): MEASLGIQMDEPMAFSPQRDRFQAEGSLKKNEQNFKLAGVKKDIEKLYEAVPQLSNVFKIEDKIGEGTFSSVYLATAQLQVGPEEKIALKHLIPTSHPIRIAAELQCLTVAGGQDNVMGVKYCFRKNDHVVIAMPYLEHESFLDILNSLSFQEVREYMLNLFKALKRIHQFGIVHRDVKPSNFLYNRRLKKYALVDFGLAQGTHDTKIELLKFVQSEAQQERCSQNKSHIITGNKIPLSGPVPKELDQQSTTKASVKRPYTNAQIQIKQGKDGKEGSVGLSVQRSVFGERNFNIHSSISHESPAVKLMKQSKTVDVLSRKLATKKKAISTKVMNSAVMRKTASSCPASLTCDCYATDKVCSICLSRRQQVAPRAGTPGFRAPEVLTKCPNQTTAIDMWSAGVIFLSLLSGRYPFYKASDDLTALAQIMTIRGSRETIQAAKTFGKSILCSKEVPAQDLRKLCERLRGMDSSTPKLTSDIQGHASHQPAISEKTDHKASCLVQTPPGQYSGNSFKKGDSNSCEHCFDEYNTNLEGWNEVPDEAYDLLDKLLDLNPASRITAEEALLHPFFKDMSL
T1 sequence (Q9UBU7 whole entry partner): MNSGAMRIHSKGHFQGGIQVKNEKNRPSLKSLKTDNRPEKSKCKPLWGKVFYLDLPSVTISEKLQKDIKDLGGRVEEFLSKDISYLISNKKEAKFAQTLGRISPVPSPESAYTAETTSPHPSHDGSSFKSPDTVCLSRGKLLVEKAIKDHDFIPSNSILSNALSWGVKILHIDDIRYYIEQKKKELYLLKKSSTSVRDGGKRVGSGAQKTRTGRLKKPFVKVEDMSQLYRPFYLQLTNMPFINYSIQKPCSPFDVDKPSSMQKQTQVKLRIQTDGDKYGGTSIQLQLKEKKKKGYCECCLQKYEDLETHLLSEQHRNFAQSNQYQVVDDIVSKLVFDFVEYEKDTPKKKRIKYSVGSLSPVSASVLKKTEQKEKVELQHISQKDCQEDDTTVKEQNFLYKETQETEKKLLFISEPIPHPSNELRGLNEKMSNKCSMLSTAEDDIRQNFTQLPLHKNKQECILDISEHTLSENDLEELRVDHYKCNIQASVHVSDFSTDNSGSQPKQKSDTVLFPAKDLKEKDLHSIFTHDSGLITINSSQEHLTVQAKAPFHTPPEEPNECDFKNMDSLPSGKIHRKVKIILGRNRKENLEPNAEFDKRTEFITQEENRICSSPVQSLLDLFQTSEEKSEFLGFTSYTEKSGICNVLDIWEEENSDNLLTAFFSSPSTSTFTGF

Row | Ki [µM] | Compound
1 | < 0.01 | OCCOCCNc1nc(Cl)cc(-c2c[nH]c3ncccc23)n1 [Example 474, 2-(2-{[4-chloro-6-(1H-pyrrolo[2,3-b]pyridin-3-yl)pyrimidin-2-yl]amino}ethoxy)ethanol]
2 | < 0.01 | NCCOCCNc1nc(Cl)cc(-c2c[nH]c3ncccc23)n1 [Example 475, N-[2-(2-aminoethoxy)ethyl]-4-chloro-6-(1H-pyrrolo[2,3-b]pyridin-3-yl)pyrimidin-2-amine]
3 | < 0.01 | Clc1cc(-c2c[nH]c3ncccc23)nc(N[C@H]2CC[C@H](NC3CCCC3)CC2)n1 [Example 477, trans-N-[4-chloro-6-(1H-pyrrolo[2,3-b]pyridin-3-yl)pyrimidin-2-yl]-N′-cyclopentylcyclohexane-1,4-diamine]
4 | 0.01 to 0.1 | CC(=O)N[C@H]1CC[C@H](Oc2nc(Cl)cc(-c3c[nH]c4ncccc34)n2)CC1 [Example 480, N-(trans-4-{[4-chloro-6-(1H-pyrrolo[2,3-b]pyridin-3-yl)pyrimidin-2-yl]oxy}cyclohexyl)acetamide]
5 | < 0.01 | O=S(=O)(N[C@H]1CC[C@H](Nc2nc(Cl)cc(-c3c[nH]c4ncccc34)n2)CC1)c1ccsc1 [Example 481, N-(trans-4-{[4-chloro-6-(1H-pyrrolo[2,3-b]pyridin-3-yl)pyrimidin-2-yl]amino}cyclohexyl)thiophene-3-sulfonamide]

More lines, now with the values behind:

Row | Compound | Ki [µM]
6 | CN(C)c1ccc(NC(=O)N[C@H]2CC[C@H](Nc3nc(Cl)cc(-c4c[nH]c5ncccc45)n3)CC2)cc1 [Example 471, 1-(trans-4-{[4-chloro-6-(1H-pyrrolo[2,3-b]pyridin-3-yl)pyrimidin-2-yl]amino}cyclohexyl)-3-[4-(dimethylamino)phenyl]urea] | < 0.01
7 | O=C(CN1C(=O)c2ccccc2C1=O)N[C@H]1CC[C@H](Nc2nc(Cl)cc(-c3c[nH]c4ncccc34)n2)CC1 [Example 472, N-(trans-4-{[4-chloro-6-(1H-pyrrolo[2,3-b]pyridin-3-yl)pyrimidin-2-yl]amino}cyclohexyl)-2-(1,3-dioxo-1,3-dihydro-2H-isoindol-2-yl)acetamide] | < 0.01
8 | O=C1NCCN1C(=O)N[C@H]1CC[C@H](Nc2nc(Cl)cc(-c3c[nH]c4ncccc34)n2)CC1 [Example 473, N-(trans-4-{[4-chloro-6-(1H-pyrrolo[2,3-b]pyridin-3-yl)pyrimidin-2-yl]amino}cyclohexyl)-2-oxoimidazolidine-1-carboxamide] | < 0.01
9 | O=C(CNC1CCCC1)N[C@H]1CC[C@H](Nc2nc(Cl)cc(-c3c[nH]c4ncccc34)n2)CC1 [Example 478, N-(trans-4-{[4-chloro-6-(1H-pyrrolo[2,3-b]pyridin-3-yl)pyrimidin-2-yl]amino}cyclohexyl)-N~2~-cyclopentylglycinamide] | < 0.01
10 | CCCS(=O)(=O)N[C@H]1CC[C@H](Nc2nc(Cl)cc(-c3c[nH]c4ncccc34)n2)CC1 [Example 479, N-(trans-4-{[4-chloro-6-(1H-pyrrolo[2,3-b]pyridin-3-yl)pyrimidin-2-yl]amino}cyclohexyl)propane-1-sulfonamide] | < 0.01
11 | O=S(=O)(N[C@H]1CC[C@H](Nc2nc(Cl)cc(-c3c[nH]c4ncccc34)n2)CC1)c1cccs1 [Example 482, N-(trans-4-{[4-chloro-6-(1H-pyrrolo[2,3-b]pyridin-3-yl)pyrimidin-2-yl]amino}cyclohexyl)thiophene-2-sulfonamide] | < 0.01
12 | N-(3-{[6-chloro-4-(1H-pyrrolo[2,3-b]pyridin-3-yl)pyridin-2-yl]amino}cyclohexyl)-2-(dimethylamino)ethanesulfonamide [Example 154] | < 0.01
13 | N-{2-[(3-{[6-chloro-4-(1H-pyrrolo[2,3-b]pyridin-3-yl)pyridin-2-yl]amino}cyclohexyl)sulfamoyl]ethyl}benzamide [Example 169] | < 0.01
14 | {4-[(4-{[6-chloro-4-(1H-pyrrolo[2,3-b]pyridin-3-yl)pyridin-2-yl]amino}cyclohexyl)amino]piperidin-1-yl}(phenyl)methanone [Example 177] | < 0.01
